Data reported in patent US6627246B2, “Process for coating stents and other medical devices using super-critical carbon dioxide” (Ortho-McNeil Pharmaceutical, Inc., priority 2000, dated 2003).

Key:
[1] = Determination of RWJ-53308 on the PLGA coated stent (24 h water maceration, UV 261 nm); format: physicochemical; conditions: macerated 24 hours in 2 mL water, UV absorbance 261 nm
Description: A coated stent obtained in step b above was placed in a tube with 2 mL. water. The coated stent was allowed to macerate for 24 hours. The aqueous supernatant was drained, filtered and UV absorbance was read at 261 nm. The amount of RWJ-53308 on the stent was calculated by comparing the absorbance value of a standard solution containing 147 μg/mL solution of RWJ-53308. Thus the supernatant obtained by extracting the drug from the PLGA coated stent contained 105 μg of RWJ-53308.

[2] = In-vitro release study of RWJ-53308 from PLGA coated stent; format: physicochemical; conditions: from PLGA coated stent in 2 mL water
Description: A coated stent obtained in step b was placed in a tube with 2 mL of water. A 1 mL. aliquot was taken at the 1 hr and at the 17.5 hour time point. This 1 mL. aliquot was replaced with fresh water at each sampling. The sampled aliquot was analyzed by reading UV absorbance at 261 nm. The drug concentration was calculated by comparing the absorbance of a standard solution containing 147 μg/mL aqueous solution of RWJ-53308.
It was observed that approx. 66 ug of RWJ-53308 was released at 1 hour and a cumulative amount of approx. 134 ug was released at 17.5 hours as shown in FIG. 1.

amount of RWJ-53308 in supernatant extracted from PLGA coated stent [1]: 105 µg
amount of RWJ-53308 released ([2]; at 1 hour): approx. 66 ug
cumulative amount of RWJ-53308 released ([2]; at 17.5 hours): approx. 134 ug
Compound: O=C(O)C[C@H](NC(=O)[C@@H]1CCCN(C(=O)CCC2CCNCC2)C1)c1cccnc1 [RWJ-53308, 3-Pyridinepropanoic acid, b-[[[(3R)-1-[1-oxo-3-(4-piperidinyl)propyl]-3-piperidinyl]carbonyl]amino]-, (bS)-(9CI)]
